Measurements published in patent US5223526A, “Pyrazole carboxanilide fungicides and use” (Monsanto Company, priority 1992, dated 1993).

Experiments:
Botrytis cinerea [1] = assay: Eggplant grey mold; format: in vivo; parameters: scale not given here; conditions: inoculated 24 h later, rated after 3-4 days; for Disease Control Rating at 500 ppm: eggplant sprayed with 500 ppm; for Disease Control Rating at 20 ppm: eggplant sprayed with 20 ppm; for Disease Control Rating at 100 ppm: eggplant sprayed with 100 ppm
Method in brief: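 Protective test: compound formulations (2:3 acetone:water, 0.5% Tween 20; 500, 100 or 20 ppm) sprayed on 14-18-day-old plants, with spore inoculum (4×10^6 spore/mL) applied a day later. Disease control rated on Botrytis lesions after 3-4 days at 23 °C and 100% humidity.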

Rhizoctonia solani = assay: Rice sheath blight; format: in vivo; parameters: scale not given here; conditions: inoculated two days later, rated after 7 days, average of five plants; for Disease Control Rating at 0.02 mg/mL: foliage and soil sprayed with 0.02 mg/mL; for Disease Control Rating at 0.1 mg/mL: foliage and soil sprayed with 0.1 mg/mL; for Disease Control Rating at 0.5 mg/mL: foliage and soil sprayed with 0.5 mg/mL
Method in brief: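 Preventive test: R. solani inoculum on rice grain was applied at the plant base two days after spraying foliage and soil with Compound A (0.5, 0.1 or 0.02 mg/mL, water/acetone/Tween 20). Plants aged 11–15 days stood in flood trays; after 7 days at 25 °C and high humidity, disease control was rated against untreated plants, five plants averaged.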

succinate dehydrogenase = biological target: T1, succinate dehydrogenase (Botrytis cinerea, UniProt A0A384J5E4+A0A384J8V8+A0A384JHJ5); assay: Enzyme inhibition: succinate dehydrogenase activity in Botrytis cinerea mitochondria (DCPIP reduction); format: biochemical; conditions: concentration required to inhibit the rate of DCPIP reduction by 50%; Botrytis cinerea isolate Nick mitochondria; read-out: I50 (μM conc.)
T1 construct: succinate-DCPIP reductase assay with KCN
Method in brief: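 DCPIP (45 μM) reduction at 600 nm tracked with 17 mM succinate, 1 mM KCN and 50 mM potassium phosphate, pH 7.2. Compounds were added in acetone (final 1% v/v), and Botrytis cinerea isolate Nick mitochondrial fraction initiated the reaction. Rates minus endogenous activity gave percentage inhibition, plotted semilog against concentration to derive I50 (μM).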

Botrytis cinerea [2] = assay: Vine grey mold (grape berries); format: in vivo; conditions: average of six berries, 7-10 days; for pest or weed control at 50 ppm: grape berries treated with 50 ppm, read-out: % DISEASE CONTROL 50 ppm; for pest or weed control at 200 ppm: grape berries treated with 200 ppm, read-out: % DISEASE CONTROL 200 ppm
Method in brief: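 Preventive berry test: compound at 50 or 200 ppm (acetone/water, 0.05% Tween 20) applied one day before inoculation with 10^6 spores/mL Botrytis conidia. After 7-10 days at 20 °C under 12 h light, infected surface area rated; disease control expressed as percent reduction from control mean; repeated-test values averaged.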

T1 sequence (A0A384J5E4 1-300): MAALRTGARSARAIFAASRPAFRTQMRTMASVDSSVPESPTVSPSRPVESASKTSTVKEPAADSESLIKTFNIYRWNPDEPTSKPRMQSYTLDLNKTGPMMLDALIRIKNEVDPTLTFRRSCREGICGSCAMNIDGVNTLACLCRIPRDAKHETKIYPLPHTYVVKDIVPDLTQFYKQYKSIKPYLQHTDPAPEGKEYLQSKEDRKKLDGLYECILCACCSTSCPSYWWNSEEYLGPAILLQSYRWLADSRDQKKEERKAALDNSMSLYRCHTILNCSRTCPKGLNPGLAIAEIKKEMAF
T1 sequence (A0A384J8V8 1-189): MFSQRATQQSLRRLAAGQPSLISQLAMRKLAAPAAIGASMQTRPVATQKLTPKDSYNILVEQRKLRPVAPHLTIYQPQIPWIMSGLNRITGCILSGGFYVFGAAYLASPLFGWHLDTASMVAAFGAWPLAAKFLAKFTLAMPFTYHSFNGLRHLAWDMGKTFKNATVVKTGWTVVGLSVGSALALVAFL
T1 sequence (A0A384JHJ5 1-192): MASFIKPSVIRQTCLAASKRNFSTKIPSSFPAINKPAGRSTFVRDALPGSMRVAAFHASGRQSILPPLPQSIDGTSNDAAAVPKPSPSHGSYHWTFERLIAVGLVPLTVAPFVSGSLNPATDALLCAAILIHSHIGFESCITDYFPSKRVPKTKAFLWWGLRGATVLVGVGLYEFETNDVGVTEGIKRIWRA
T1 sequence (A0A384K456 1-647 partner): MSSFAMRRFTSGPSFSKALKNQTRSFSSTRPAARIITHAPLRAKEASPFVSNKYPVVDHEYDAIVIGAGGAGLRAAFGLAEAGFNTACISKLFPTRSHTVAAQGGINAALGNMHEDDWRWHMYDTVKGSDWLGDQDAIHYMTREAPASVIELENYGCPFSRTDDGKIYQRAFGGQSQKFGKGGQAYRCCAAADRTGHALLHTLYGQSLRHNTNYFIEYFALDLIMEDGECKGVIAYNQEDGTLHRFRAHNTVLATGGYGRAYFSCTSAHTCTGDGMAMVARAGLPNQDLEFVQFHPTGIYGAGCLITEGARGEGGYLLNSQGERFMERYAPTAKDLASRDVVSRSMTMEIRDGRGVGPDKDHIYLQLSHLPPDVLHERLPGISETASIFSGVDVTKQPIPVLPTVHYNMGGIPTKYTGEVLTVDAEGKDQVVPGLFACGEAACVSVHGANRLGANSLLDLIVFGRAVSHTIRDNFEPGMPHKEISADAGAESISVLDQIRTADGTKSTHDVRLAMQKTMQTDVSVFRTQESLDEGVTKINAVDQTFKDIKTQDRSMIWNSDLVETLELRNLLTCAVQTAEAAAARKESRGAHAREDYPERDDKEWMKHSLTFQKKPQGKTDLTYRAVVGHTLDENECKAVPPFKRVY

| Compound | Disease Control Rating at 500 ppm (Botrytis cinerea [1]) | Disease Control Rating at 0.02 mg/mL (Rhizoctonia solani) | Disease Control Rating at 0.1 mg/mL (Rhizoctonia solani) | Disease Control Rating at 0.5 mg/mL (Rhizoctonia solani) | IC50 (succinate dehydrogenase) [µM] | pest or weed control at 50 ppm (Botrytis cinerea [2]) [%] | pest or weed control at 200 ppm (Botrytis cinerea [2]) [%] | Disease Control Rating at 20 ppm (Botrytis cinerea [1]) | Disease Control Rating at 100 ppm (Botrytis cinerea [1]) |
| --- | --- | --- | --- | --- | --- | --- | --- | --- | --- |
| Cn1cc(C(=O)Nc2ccccc2O[C@@H]2C[C@H]3CC[C@@H]2C3)c(C(F)F)n1 (relative stereo) [Example 80, 1H-pyrazole-4-carboxamide, N-[2-(bicyclo[2.2.1]hept-2-yloxy)-phenyl]-3-(difluoromethyl)-1-methyl-, exo-] | 0 | 2 | 3 | 3 | 0.083 | 0 | 0 | – | – |
| Cn1cc(C(=O)Nc2ccccc2C2CCCCC2)c(OC(F)F)n1 [Example 59] | 0 | – | – | 0 | 1 | 0 | 0 | – | – |
| Cc1cccc(NC(=O)c2cn(C)nc2C(F)(F)F)c1C1CCCCC1 [Example 19, 1H-pyrazole-4-carboxamide, N-(2-cyclohexyl-3-methylphenyl)-1-methyl-3-(trifluoromethyl)-] | 3 | 1 | 3 | 3 | 0.028 | 32 | 52 | 1 | 2 |
| Cn1cc(C(=O)Nc2ccccc2C2(C)CCCC2)c(C(F)(F)F)n1 [Example 67, 1H-pyrazole-4-carboxamide, 1-methyl-N-[2-(1-methylcyclopentyl)phenyl]-3-(trifluoromethyl)-] | 2 | – | – | 2 | 0.056 | 31 | 0 | 0 | 1 |
| Cn1cc(C(=O)Nc2ccccc2[C@@H]2C[C@H]3CC[C@@H]2C3)c(Cl)n1 (relative stereo) [Example 52, 1H-pyrazole-4-carboxamide, N-(2-bicyclo[2.2.1]hept-2-ylphenyl)-3-chloro-1-methyl-, exo-] | 0 | 0 | 2 | 2 | 0.049 | 19 | 30 | – | – |
| Cc1cccc(NC(=O)c2cn(C)nc2C(F)F)c1C1CCCCC1 [Example 20, 1H-pyrazole-4-carboxamide, N-(2-cyclohexyl-3-methylphenyl)-3-(difluoromethyl)-1-methyl-] | 3 | 2 | 3 | 3 | 0.014 | 78 | 81 | 1 | 2 |
| Cn1cc(C(=O)Nc2ccccc2C2=CCOCC2)c(C(F)F)n1 [Example 104, 1H-pyrazole-4-carboxamide, 3-(difluoromethyl)-N-[2-(5,6-dihydro-2H-pyran-4-yl)phenyl]-1-methyl-] | 0 | – | – | 0 | 0.77 | 0 | 48 | – | – |
| Cc1cc(C)c(C2CCCC2)c(NC(=O)c2cn(C)nc2C(F)(F)F)c1 [Example 31, 1H-pyrazole-4-carboxamide, N-(2-cyclopentyl-3,5-dimethylphenyl)-1-methyl-3-(trifluoromethyl)-] | 0 | – | – | 1 | 0.068 | 0 | 23 | 0 | 0 |
| Cn1cc(C(=O)Nc2ccccc2C2CC(C)(C)CC(C)(C)C2)c(C(F)F)n1 [Example 140, 1H-pyrazole-4-carboxamide, 3-(difluoromethyl)-1-methyl-N-[2-(3,3,5,5-tetramethylcyclohexyl)-phenyl]-] | 1 | 0 | 2 | 3 | 0.039 | 16 | 12 | 0 | 1 |
| Cn1cc(C(=O)Nc2ccccc2C2CCCCCCC2)c(I)n1 [Example 68, 1H-pyrazole-4-carboxamide, N-(2-cyclooctylphenyl)-3-iodo-1-methy1-] | 1 | 2 | 3 | 3 | 0.0037 | 78 | 89 | – | – |
| Cn1cc(C(=O)Nc2ccccc2O[C@H]2CC[C@@H](C)CC2)c(C(F)(F)F)n1 [Example 72, 1H-pyrazole-4-carboxamide, 1-methyl-N-[2-[(4-methylcyclohexyl)oxy]phenyl]-3-(trifluoromethyl)-, cis-] | 0 | – | – | 0 | 0.031 | 0 | 0 | – | – |
| Cn1cc(C(=O)Nc2ccccc2OCCC2CCCC2)c(C(F)(F)F)n1 [Example 55, 1H-pyrazole-4-carboxamide, N-[2-(2-cyclopentylethoxy)phenyl]-1-methyl-3-(trifluoromethyl)-] | 0 | – | – | 0 | 0.027 | 11 | 0 | – | – |
| Cc1ccc(NC(=O)c2cn(C)nc2C(F)(F)F)c(C2CCCCC2)c1 [Example 29, 1H-pyrazole-4-carboxamide, N-(2-cyclohexyl-4-methylphenyl)-1-methyl-3-(trifluoromethyl)-] | 0 | – | – | 0 | 0.036 | 0 | 54 | – | – |
| Cn1cc(C(=O)Nc2ccccc2C2CCC(C(C)(C)C)CC2)c(C(F)F)n1 (stereo not shown) [Example 134] | 2 | 3 | 3 | 3 | 0.0047 | 66 | 61 | 1 | 1 |
| CC(c1ccccc1NC(=O)c1cn(C)nc1C(F)(F)F)C1CCCC1 (stereo not shown) [Example 53, 1H-pyrazole-4-carboxamide, N-[2-(1-cyclopentylethyl)phenyl]-1-methyl-3-(trifluoromethyl)-] | 0 | 2 | 3 | 3 | 0.021 | 40 | 70 | – | – |
